Laboratory results published in patent US20090088449A1, “4-ACYLAMINOPYRIDINE DERIVATIVE MEDIATED NEUROGENESIS” (MITSUBISHI TANABE PHARMA CORPORATION, priority 2006, published 2009).

Tests used:
Human Neural Stem Cells [1] = test: MKC-231 in combination with an AMPA agonist, neuronal differentiation of human neural stem cells; assay type: cell-based; conditions: for EC50: Homo sapiens, Neural stem cell
Protocol: FIG. 4 is a dose-response curve showing enhancement of the effects of the agent MKC-231 on neuronal differentiation by combination with an AMPA agonist (AMPA). Data is presented as the percentage of the neuronal positive control, with basal media values subtracted.
FIG. 6 is the average does response curve of multiple experiments (N=6) showing enhancement of the effects of the agent MKC-231 on neuronal differentiation by combination with affixed concentration of AMPA agonist (0.32 μM AMPA). […] Data is presented as the percentage of the neuronal positive control, with basal media values subtracted.
Experiments with various concentrations of MKC-231 alone or with 0.316 μM of an AMPA agonist (AMPA) were carried out generally as described in Example 1 for neuronal differentiation. […] The data also indicate that MKC-231 apparently exerts some of its neurogenic effect as an AMPA potentiator or sensitizer. Also see FIG. 6 relating to BCI-540 in combination with AMPA and neuronal differentiation.

[2] = molecular target: acetylcholinesterase (AChE) (Homo sapiens, UniProt P22303); conditions: cited from earlier work
Human Neural Stem Cells [3] = test: Toxic/trophic effect on human neural stem cells (Hoechst 33342 cell count); assay type: cell-based; conditions: concentrations up to 31.6 μM
Protocol: Experiments were carried out as described in Example 1, except that the cells were stained with a nuclear dye (Hoechst 33342).
The data therein is shown as a percentage of the basal media cell count. Concentrations that are toxic fall below 80% of the basal cell count. Trophic compounds show dose dependent increases in cell count.

Human Neural Stem Cells [4] = test: MKC-231 in combination with an AMPA antagonist (NBQX), neuronal differentiation of human neural stem cells; assay type: cell-based
Protocol: FIG. 7 is a dose-response curve showing inhibition of the effects of the agent MKC-231 on neuronal differentiation by combination with an AMPA antagonist (NBQX). Data is presented as the percentage of the neuronal positive control, with basal media values subtracted.
Experiments with various concentrations of MKC-231 alone or with 1.0 μM of an AMPA antagonist (NBQX) were carried out generally as described in Example 1 for neuronal differentiation. […] The data also indicate that MKC-231 exerts some of its neurogenic effect as through the AMPA receptor activation.

[5] = system: Human neural stem cells (hNSCs); test: Neuronal differentiation of human neural stem cells (TUJ-1 staining); assay type: cell-based
Description: Human neural stem cells (hNSCs) were isolated and grown in monolayer culture, plated, treated with varying concentrations of MKC-231 (test compound), and stained with TUJ-1 antibody, as described in U.S. Provisional Application No. 60/697,905 (incorporated by reference). Mitogen-free test media with a positive control for neuronal differentiation was used along with basal media without growth factors as a negative control.
The dose response curve of the neuronal positive control is included as a reference. The data is presented as a percent of neuronal positive control.

male F344 rats [6] = test: Novelty suppressed feeding in rat; assay type: in vivo; conditions: for change in latency to eat the food pellet: 21-day administration
Protocol: BCI-540 was administered to male F344 rats by oral gavage once daily for 21 days (1.0 mg/kg/day, p.o.). Fluoxetine was administered by oral gavage once daily for 21 days (10 mg/kg/day, p.o.). BrdU was administered once daily for 5 days (days 9 to 14, 100 mg/kg/day, i.p.). Animals were tested after 21 days of drug administration.
Shown in FIG. 9 is the change in latency to eat compared to vehicle control (±SEM). The y-axis represents percent change compared to vehicle control. The x-axis indicates treatment. Vehicle is set to 100%. The black line indicates 100% of vehicle control.

hNSCs = test: Astrocyte differentiation of hNSCs (GFAP staining); assay type: cell-based, human
Protocol: Experiments were carried out as described in Example 1, except the positive control for astrocyte differentiation contained mitogen-free test media with positive control for astrocyte differentiation, and cells were stained with GFAP antibody.

male Sprague Dawley rats = test: Elevated plus maze (animal model of anxiety); assay type: in vivo, rat
Protocol: BCI-540 was administered to male Sprague Dawley rats by oral gavage once daily for 21 days (1.0 mg/kg/day, p.o.). As a positive control, the anxiolytic diazepam (1.5 mg/kg, i.p.) was administered one time, 30 minutes prior to testing.
The y-axis represents percent time on the open arm. The x-axis indicates treatment with vehicle (black bar), positive control diazepam (gray bar), and BCI-540 treated animals (black hatched bars) (n=15/group).

male F344 rats [7] = test: Hippocampal neurogenesis in rat (BrdU); assay type: in vivo
Protocol: BCI-540 was administered to male F344 rats by oral gavage once daily for 28 days (1.0 and 4.0 mg/kg/day, p.o.). BrdU was administered once daily for 5 days (days 9 to 14, 100 mg/kg/day, i.p.). Animals were sacrificed on day 28. Brains were removed and processed for evaluation of neurogenesis.
The y-axis represents percent change compared to vehicle control. The x-axis indicates treatment with vehicle set to 100% (black bar) and BCI-540 dosed at 1.0 and 4.0 mg/kg/day (black hatched bars). The black line indicates 100% of vehicle control.

[8] = cited from earlier work; for stability at room temperature and during storage: room temperature (about 25° C.), over time
[9] = 1.0 mg/kg daily p.o. for 21 days

acetylcholinesterase (AChE), sequence (P22303 32-614, species assumed): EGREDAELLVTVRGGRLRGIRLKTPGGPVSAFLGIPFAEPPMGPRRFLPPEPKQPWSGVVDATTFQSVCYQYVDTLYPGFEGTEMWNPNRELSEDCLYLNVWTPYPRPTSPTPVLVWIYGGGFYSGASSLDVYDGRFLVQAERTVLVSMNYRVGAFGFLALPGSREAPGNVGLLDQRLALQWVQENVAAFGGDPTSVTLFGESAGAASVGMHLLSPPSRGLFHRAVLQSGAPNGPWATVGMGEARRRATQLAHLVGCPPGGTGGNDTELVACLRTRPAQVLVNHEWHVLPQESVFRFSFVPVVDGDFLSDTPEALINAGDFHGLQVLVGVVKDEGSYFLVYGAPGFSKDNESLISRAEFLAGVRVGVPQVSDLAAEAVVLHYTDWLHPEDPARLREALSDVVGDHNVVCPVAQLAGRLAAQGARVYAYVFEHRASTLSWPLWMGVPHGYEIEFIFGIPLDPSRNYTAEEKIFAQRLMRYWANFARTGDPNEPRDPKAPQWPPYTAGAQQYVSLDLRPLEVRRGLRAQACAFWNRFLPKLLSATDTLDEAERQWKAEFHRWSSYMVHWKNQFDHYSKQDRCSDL

## Cc1o[nH]c(=O)c1CC(N)C(=O)O (stereo not drawn) [AMPA, reference compound]
Human Neural Stem Cells [1]; 0.316 μM AMPA
  effect of AMPA agonist on MKC-231 stimulated neuronal differentiation: enhances the stimulation of neuronal differentiation
Human Neural Stem Cells [1]; 0.32 μM AMPA alone (FIG. 6)
  neuronal differentiation by AMPA alone: does not promote neuronal differentiation alone

## Cc1oc2nc3c(c(NC(=O)CN4CCCC4=O)c2c1C)CCCC3 [MKC-231, 2-(2-oxypyrrolidin-1-yl)-N-(2,3-dimethyl-5,6,7,8-tetrahydrofuro(2,3-b)quinolin-4-yl)acetoamide]
[2]
  AChE inhibitory activity: does not have such inhibitory activity
Human Neural Stem Cells [3]
  toxicity (cell count below 80% of basal cell count): no toxicity
Human Neural Stem Cells [4]; Homo sapiens, Neural stem cell, with 1.0 μM NBQX (FIG. 7)
  EC50: > 31.6 µM
[5]; FIG. 1
  neuronal differentiation above background levels: promoted neuronal differentiation above background levels
[5]; Homo sapiens, Neural stem cell, MKC-231 alone, percent of neuronal positive control, basal media subtracted (FIG. 1)
  EC50: 5.1 µM
Male F344 rats [6]; [9]
  decrease in latency to eat compared to vehicle control: 35%
Male F344 rats [6]
  change in latency to eat the food pellet: statistically significant decrease
hNSCs; FIG. 2
  astrocyte differentiation above basal media values: no significant increase
hNSCs; percent of astrocyte positive control, basal media subtracted (FIG. 2)
  EC50 astrocyte differentiation: undeterminable
Male Sprague Dawley rats; [9]
  increase in the time spent on the open arms: 20%
Male Sprague Dawley rats; chronic administration, 1.0 mg/kg/day p.o., 21 days
  time spent on the open arms: significant increase
Human Neural Stem Cells [1]; read-out: EC50 neuronal differentiation, MKC-231 in the presence of a fixed concentration AMPA
  EC50: 0.22 µM
Human Neural Stem Cells [1]; average of multiple experiments (N=6) (FIG. 6), read-out: EC50 neuronal differentiation, MKC-231 alone
  EC50: 3.7 µM
Human Neural Stem Cells [1]; with 0.316 μM AMPA agonist (AMPA) (FIG. 4), read-out: EC50 neuronal differentiation, MKC-231 in combination with AMPA
  EC50: 0.99 µM
Male F344 rats [7]; 1.0 mg/kg daily p.o. for 28 days
  increase in new neurons within the granule cell layer of the dentate gyrus compared to vehicle control: 22%
Male F344 rats [7]; 4.0 mg/kg daily p.o. for 28 days
  increase in new neurons within the granule cell layer of the dentate gyrus compared to vehicle control: 20%
Male F344 rats [7]; 1.0 and 4.0 mg/kg daily for 28 days
  change in new neurons within the granule cell layer of the dentate gyrus: statistically significant increase

## NS(=O)(=O)c1cccc2c1c([N+](=O)[O-])cc1nc(O)c(O)nc12 [NBQX, reference compound]
Human Neural Stem Cells [4]; 1.0 μM NBQX
  effect of AMPA antagonist on MKC-231 stimulated neuronal differentiation: inhibits the stimulation of neuronal differentiation

## CN1C(=O)CN=C(c2ccccc2)c2cc(Cl)ccc21 [diazepam, reference compound]
Male Sprague Dawley rats; single administration, 1.5 mg/kg i.p., 30 minutes prior to testing
  increase in time spent on the open arms: 12%

## CNCCC(Oc1ccc(C(F)(F)F)cc1)c1ccccc1 (stereo not drawn) [fluoxetine, reference compound]
Male F344 rats [6]; 10.0 mg/kg daily p.o. for 21 days
  decrease in latency to eat compared to vehicle control: 38%
Male F344 rats [6]
  change in latency to eat the food pellet: statistically significant decrease

## Cc1oc2nc3c(c(NC(=O)CC4CNC(=O)C4)c2c1C)CCCC3 (stereo not drawn) [form A crystal, N-(2,3-dimethyl-5,6,7,8-tetrahydrofuro[2,3-b]quinolin-4-yl)-2-(2-oxopyrrolidin-4-yl)acetamide]
[8]
  stability at room temperature and during storage: better stability
  stability in storage: greater stability in storage than the form B crystal

## Cc1oc2nc3c(c(NC(=O)CC4CNC(=O)C4)c2c1C)CCCC3 (stereo not drawn) [form B crystal, N-(2,3-dimethyl-5,6,7,8-tetrahydrofuro[2,3-b]quinolin-4-yl)-2-(2-oxopyrrolidin-4-yl)acetamide]
[8]
  stability at room temperature and during storage: lower stability
  stability in storage: lower stability in storage than the form A crystal
